According to US8323622B2, “Ionic complex nanoparticles for detecting heparanase activities and method for preparing the same” (Korea Institute of Science and Technology, priority 2009, dated 2012):

Tests used:
heparanase [1] = biological target: T1, heparanase (Homo sapiens, UniProt Q9Y251); assay: Fluorescence recovery of nanoparticles treated with heparanase or heparanase+inhibitor; type: biochemical; settings: 37[…], one hour; HS-Cy5.5/GC-BHQ3 probe
T1 sequence (Q9Y251 158-543 limits assumed): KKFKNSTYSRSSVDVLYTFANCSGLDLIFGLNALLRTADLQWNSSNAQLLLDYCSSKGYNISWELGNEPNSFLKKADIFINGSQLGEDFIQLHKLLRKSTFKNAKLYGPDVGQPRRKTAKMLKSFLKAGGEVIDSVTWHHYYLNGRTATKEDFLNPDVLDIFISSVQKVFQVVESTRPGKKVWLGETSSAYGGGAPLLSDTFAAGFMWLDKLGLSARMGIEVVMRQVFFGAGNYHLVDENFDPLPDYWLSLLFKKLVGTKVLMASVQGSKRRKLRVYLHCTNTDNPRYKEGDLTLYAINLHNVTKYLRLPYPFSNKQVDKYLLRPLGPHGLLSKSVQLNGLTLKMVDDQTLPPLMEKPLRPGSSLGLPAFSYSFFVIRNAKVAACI
T1 sequence (Q9Y251 36-109 limits assumed): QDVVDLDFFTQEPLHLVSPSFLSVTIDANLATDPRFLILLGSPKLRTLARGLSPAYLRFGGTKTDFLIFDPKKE
Method: By using the ionic-complex nanoparticles of HS-Cy5.5/GC-BHQ3 prepared in the preparation example 1, heparanase activities with or without heparanase inhibitor treatment were imaged.
The ionic-complex nanoparticles of HS-Cy5.5/GC-BHQ3 prepared in the preparation example 1 were treacted with ‘heparanase’ and ‘heparanase+inhibitor’ at a temperature of 37 °C for one hour, and then fluorescence emission therefrom by an enzyme degradation reaction was observed. After lapse of one hour, the fluorescence of the nanoparticles was observed by using a Kodak Image Station 4000MM Digital Imaging System mounted with a charge coupled device (CCD) camera. […] From the result, it could be seen that the ionic-complex nanoparticles of HS-Cy5.5/GC-BHQ3 could image heparanase enzymes, and could be applied to a composition for screening drugs of heparanase inhibitors or effects of drugs.

heparanase [2] = biological target: T2, heparanase (Mus musculus, UniProt Q6YGZ1); assay: Imaging of heparanase expression in SCC7 cancer model; type: in vivo; settings: 20 mg/kg heparin injected into cancer tissues 20 minutes before probe; SCC7 nude mice
T2 construct: It is known that the SCC7 cancer tissues express a large amount of heparanase; from tissue; host or cells: SCC7 tumour tissue in nude mice
T2 sequence (Q6YGZ1 150-535 limits assumed): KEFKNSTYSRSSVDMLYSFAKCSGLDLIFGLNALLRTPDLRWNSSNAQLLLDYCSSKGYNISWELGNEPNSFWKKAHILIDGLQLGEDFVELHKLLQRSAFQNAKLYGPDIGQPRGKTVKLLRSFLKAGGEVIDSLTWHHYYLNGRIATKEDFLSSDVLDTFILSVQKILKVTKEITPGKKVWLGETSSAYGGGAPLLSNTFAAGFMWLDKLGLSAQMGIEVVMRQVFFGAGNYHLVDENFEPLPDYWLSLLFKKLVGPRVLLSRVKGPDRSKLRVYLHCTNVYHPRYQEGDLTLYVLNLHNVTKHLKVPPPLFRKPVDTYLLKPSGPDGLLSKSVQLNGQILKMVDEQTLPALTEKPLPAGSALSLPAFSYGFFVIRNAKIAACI
T2 sequence (Q6YGZ1 28-101 limits assumed): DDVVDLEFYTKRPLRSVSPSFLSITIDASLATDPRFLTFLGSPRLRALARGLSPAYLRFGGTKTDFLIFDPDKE
Method: To establish a cancer model, 1×10^6 SCC7 cancer cells were implanted in nude mice. Here, the SCC7 are epithelial cancer cells, and commercially available from American Type Culture Collection (ATCC). Next, when the cancer has a size of about 5-8 mm, the ionic-complex nanoparticles of HS-Cy5.5/GC-BHQ3 were injected into veins of the mice tails. Then, heparanase expression was imaged by using an eXplore Optix image device.
It is known that the SCC7 cancer tissues express a large amount of heparanase. Accordingly, in order to test the ability of a heparanase inhibitor to inhibit heparanase, 20 mg/kg of heparin was injected into cancer tissues. After lapse of 20 minutes, the ionic-complex nanoparticles of HS-Cy5.5/GC-BHQ3 were injected into veins of the mice tails. Then, decrease of heparanase activities was imaged by using the explore Optix image device.

fluorescence intensity of nanoparticles when 'heparanase+inhibitor' were treated (heparanase [1]): decreased | fluorescence intensity in cancer tissues of heparanase inhibitor-injected group (heparanase [2]): decreased fluorescence intensity
Substance: heparin
